Source: patent US20230365590A1, “BIPHENYL COMPOUND AS IMMUNOMODULATOR, PREPARATION METHOD THEREFOR AND APPLICATION THEREOF” (SHENZHEN CHIPSCREEN BIOSCIENCES CO., LTD., priority 2020, published 2023)

Tests used:
[1] = target: PD-1/PD-L1 binding (recombinant human PD-L1-Fc fusion protein and His-PD-1 protein) (Homo sapiens (Human), UniProt Q9NZQ7); assay: In vitro inhibitory activity against PD-1/PD-L1 binding (HTRF); conditions: read-out: IC50 for inhibiting PD-1/PD-L1 binding in vitro
Text: Homogeneous time resolved fluorescence method (HTRF): This method uses the recombinant human PD-L1 protein fused with hFc tag and the recombinant human PD-1 protein fused with His tag, which are interacting ligands and receptors. When the anti-hFc antibody containing chelated Eu tag and the anti-His antibody containing XL665 fluorescein tag are used to bind with the above two corresponding tags respectively and are excited by 320 nm laser, energy can be transferred from Eu element to XL665 fluorescein due to ligand receptor binding, and the XL665 fluorescein is excited to emit light with a wavelength of 665 nm. When an inhibitor for inhibiting interaction of PD-L1 and PD-1 is added, the binding of the ligand and the receptor is destroyed, causing a long distance between Eu and XL665. As a result, the energy cannot be transferred, and the XL665 fluorescein will not be excited.
Experimental Materials and Devices The recombinant human PD-1 protein with His tag (His-PD-1 protein, Cat #: 10377-H08H-50) and the recombinant human PD-L1-Fc fusion protein (PD-L1-Fc fusion protein, Cat #: 10084-H02H-100) were purchased from Sino Biological Inc., anti-hFc-Eu^3+ antibody and anti-His-XL665 antibody were purchased from Cisbio, and other related reagents such as a diluent buffer (diluent buffer 5 (Cat #: 62DL5DDC) and a detection buffer (PPI-European detection buffer, Cat #: 61DB9RDF) were purchased from Cisbio. Fluorescence detector Tecan (Spark 10M) was purchased from Tecan Company in Switzerland.
The experiment process was carried out according to the flow required in the operating manual of the test reagent. The process was as follows: • (1) Experiment preparation: A test compound was diluted to different concentration gradients with the dilution buffer (the highest final concentration in a 20 μL final reaction system was 10 μM). The His-PD-1 protein was diluted to 800 nM (the final concentration in the 20 final reaction system was 100 nM). The PD-L1-Fc fusion protein was diluted to 16 nM (the final concentration was 2 nM). […] All tests were conducted by use of multiple holes. • (4) The fluorescence detector Tecan (Spark 10M) was used to detect the fluorescence signal of each hole. The excitation wavelength was 320 nm, and the emission wavelengths for detection were 620 nm and 665 nm, respectively. The strength of PD-1/PD-L1 binding refers to a fluorescence signal ratio Em665/Em620. • (5) Calculation formula of binding inhibition rate of test compound: Inhibition rate (%)=[1−(fluorescence signal ratio of detected hole−fluorescence signal ratio of 100% inhibition negative control)]/(fluorescence signal ratio of 0% inhibition positive control−fluorescence signal ratio of 100% inhibition negative control)×100%. The 50% inhibition concentration (IC50) was calculated after the PD-1/PD-L1 binding inhibition rates of the test compound with different concentration gradients were calculated respectively.

[2] = test system: PD-1/PD-L1 mediated inhibitory signal to T cell activation (CHO-PD-L1-CD3L cells and Jurkat-PD-1-NFAT cells); assay: Blocking of PD-1/PD-L1 mediated inhibitory signal to T cell activation at cell level (NFAT luciferase reporter, co-culture); type: cell-based; conditions: Homo sapiens, CHO-PD-L1-CD3L / Jurkat-PD-1-NFAT co-culture, 6 h
Procedure: In order to test the effect of interaction between PD-1 and PD-L1 on T cell activation signal in immune response, CHO-PD-L1-CD3L cells stably expressing human PD-L1 molecule and anti-CD3 single-chain antibody (ScFv) and Jurkat-PD-1-NFAT cells stably expressing human PD-1 molecule and NFAT reporter gene were constructed. When two kinds of cells are incubated together, anti-CD3 ScFv on the CHO cell surface and membrane CD3 molecule of Jurkat cell combine to transmit an activation signal into Jurkat cell. However, due to the binding of PD-L1 on the CHO cell surface and PD-1 molecule on the Jurkat cell surface at the same time, a signal for inhibiting activation is transmitted inward, so that luciferase reporter gene cannot be expressed. When an immunocheckpoint antibody or small-molecule inhibitor is added, the binding of PD-1 and PD-L1 is blocked, the NFAT pathway activated by CD3 ScFv antibody and CD3 cross-linking mediated T cell activation signal is no longer affected by the inhibitory signal, and the downstream luciferase reporter gene starts to be expressed. Chemiluminescence signals proportional to reporter gene activation can be detected by adding a catalytic substrate.
CHO-PD-L1-CD3L cells expressing human PD-L1 molecule and anti-CD3 single-chain antibody (ScFv) and Jurkat-PD-1-NFAT cells stably expressing human PD-1 molecule and NFAT reporter gene were all independently constructed and presented by Dr. Chen Bo (KeyMed Biosciences (Chengdu) Co., Ltd. Puromycin (Cat # 540411) and Hygromycin B (Cat # V900372) for stable culture of transfected cells were purchased from Sigma, PMA (Cat # P1585) was purchased from Sigma, and the anti human PD-L1 antibody (Cat # GMP-A066) was purchased from Novoprotein Company. The Luciferase substrate solution (Cat # E6485) and the luciferase-specific cell lysate 5×(Cat # E1531) were purchased from Promega company. The fluorescence detector Tecan (Spark 10M) was purchased from Tecan Company in Switzerland.
Main Process of Experiment • (1) On the day before the experiment, 100 μL of CHO-PD-L1-CD3L cells (about 4×10^4 cells/well) were inoculated at 37° C. overnight in a 96-well cell culture plate, and the culture medium was DMEM/F12 containing 10% FBS, 8 μg/mL Puromycin and 200 μg/mL Hygromycin B. • (2) The test compound was diluted with 0.1% PBST to obtain solutions with different concentration gradients, and then added into 96-well plates and incubated for 30 min in advance. The RPMI 1640 complete medium containing 10% FBS, 8 μg/mL Puromycin and 200 μg/mL Hygromycin B was used to adjust the Jurkat-PD-1-NFAT cell count to 2×10^5 cells/mL, and 100 ng/mL PMA (10 mg/mL storage solution prepared with DMSO) was added to amplify the T cell activation signal. 100 μL of the Jurkat-PD-1-NFAT cells were added into each well of the 96-well plates for co-culture. • (3) During the test reaction, control groups were set, including the solvent control without adding the test compound and the positive control with the addition of the […] in the experimental system. All tests were conducted by use of multiple holes. • (4) Incubation was continued at 37° C. for 6 h, 40 μL of 5×cell lysate was added directly, the solution was mixed well and placed at room temperature for 10 min to completely lyse cells. 50 μL of lysed cell solution was transferred to a fluorescence detection plate, 30 μL of luciferase substrate solution was then added, and the chemiluminescence detection program was immediately selected on the fluorescence detector for determination. • (5) Calculation formula of the inhibition rate of the test compound against T cell activation signal at the cell level: The inhibition rate against T cell activation signal (%)=(original chemiluminescence value of the test hole−solvent control)/(the highest original chemiluminescence value determined in the compound test hole−solvent control)×100%. […]

Sequence of PD-1/PD-L1 binding (recombinant human PD-L1-Fc fusion protein and His-PD-1 protein) (Q9NZQ7 19-239): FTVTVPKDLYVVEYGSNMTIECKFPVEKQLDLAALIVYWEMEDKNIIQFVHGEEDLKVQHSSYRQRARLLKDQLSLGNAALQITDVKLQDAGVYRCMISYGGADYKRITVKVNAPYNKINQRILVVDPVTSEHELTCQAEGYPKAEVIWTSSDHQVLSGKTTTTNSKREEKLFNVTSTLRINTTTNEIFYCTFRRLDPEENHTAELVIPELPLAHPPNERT

SMILES	IC50 [1] [nM]	EC50 [2] [nM]
COCC12CCC(CCN3CCc4c(nc(C(=O)Nc5cccc(-c6cccc(NC(=O)c7nc8c(n7C)CCN(CCC79CCC(C(=O)O)(CC7)C9)C8)c6Cl)c5Cl)n4C)C3)(CC1)C2 [Compound I-6, 4-(2-(2-((2,2′-dichloro-3′-(5-(2-(4-(methoxymethyl)bicyclo[2.2.1]heptan-1-yl)ethyl)-1-methyl-4,5,6,7-tetrahydro-1H-imidazo[4,5-c]pyridine-2-carboxamido)-[1, 1′-biphenyl]-3-yl)carbamoyl)-1-methyl-1,4,6,7-tetrahydro-5H-imidazo[4,5-c]pyridin-5-yl)ethyl)bicyclo[2.2.1]heptane-1-carboxylic acid]	–	15.8
COCC12CCC(CCN3CCc4c(nc(C(=O)Nc5cccc(-c6cccc(NC(=O)c7nc8c(n7C)CCN(CCC79CCC(C(=O)O)(CC7)C9)C8)c6Cl)c5F)n4C)C3)(CC1)C2 [Compound I-9, 4-(2-(2-((2-chloro-2′-fluoro-3′-(5-(2-(4-(methoxymethyl)bicyclo[2.2.1]heptan-1-yl)ethyl)-1-methyl-4,5,6,7-tetrahydro-1H-imidazo [4,5-c]pyridine-2-carboxamido)-[1,1′-biphenyl]-3-yl)carbamoyl)-1-methyl-1,4,6,7-tetrahydro-5H-imidazo[4,5-c]pyridin-5-yl)ethyl)bicyclo[2.2.1]heptane-1-carboxylic acid]	0.88	6.79
Cn1c(C(=O)Nc2cccc(-c3cccc(NC(=O)c4nc5c(n4C)CCN(CCC46CCC(C(=O)O)(CC4)C6)C5)c3Cl)c2Cl)nc2c1CCN(CCC13CCC(COC(F)F)(CC1)C3)C2 [Compound I-7, 4-(2-(2-((2,2′-dichloro-3′-(5-(2-(4-((difluoromethoxy)methyl)bicyclo[2.2.1]heptan-1-yl)ethyl)-1-methyl-4,5,6,7-tetrahydro-1H-imidazo[4,5-c]pyridine-2-carboxamido)-[1,1′-biphenyl]-3-yl)carbamoyl)-1-methyl-1,4,6,7-tetrahydro-5H-imidazo[4,5-c]pyridin-5-yl)ethyl)bicyclo[2.2.1]heptane-1-carboxylic acid]	0.29	39.2
CCOCC12CCC(CCN3CCc4c(nc(C(=O)Nc5cccc(-c6cccc(NC(=O)c7nc8c(n7C)CCN(CCC79CCC(C(=O)O)(CC7)C9)C8)c6C)c5Cl)n4C)C3)(CC1)C2 [Compound I-3, 4-(2-(2-((2′-chloro-3′-(5-(2-(4-(ethoxymethyl)bicyclo[2.2.1]heptan-1-yl)ethyl)-1-methyl-4,5 ,6,7-tetrahydro-1H-imidazo[4,5-c]pyridine-2-carboxamido)-2-methyl-[1,1′-biphenyl]-3-yl)carbamoyl)-1-methyl-1,4,6,7-tetrahydro-5H-imidazo[4,5-c]pyridin-5-yl)ethyl)bicyclo[2.2.1]heptane-1-carboxylic acid]	1.19	17
Cn1c(C(=O)Nc2cccc(-c3cccc(NC(=O)c4nc5c(n4C)CCN(CCC46CCC(C(=O)O)(CC4)C6)C5)c3Cl)c2F)nc2c1CCN(CCC13CCC(COC(F)F)(CC1)C3)C2 [Compound I-10, 4-(2-(2-((2-chloro-3′-(5-(2-(4-((difluoromethoxy)methyl)bicyclo[2.2.1]heptan-1-yl)ethyl)-1-methyl-4,5,6,7-tetrahydro-1H-imidazo[4,5-c]pyridine-2-carboxamido)-2′-fluoro-[1,1′-biphenyl]-3-yl)carbamoyl)-1-methyl-1,4,6,7-tetrahydro-5H-imidazo[4,5-c]pyridin-5-yl)ethyl)bicyclo[2.2.1]heptane-1-carboxylic acid]	1.13	35.5

Further lines, with some results ahead:

IC50 [1] [nM]	SMILES	EC50 [2] [nM]
2.46	COCC12CCC(CCN3CCc4c(nc(C(=O)Nc5cccc(-c6cccc(NC(=O)c7nc8c(n7C)CCN(CC79CCC(C(=O)O)(CC7)C9)C8)c6Cl)c5C)n4C)C3)(CC1)C2 [Compound I-12, 4-((2-((2-chloro-3′-(5-(2-(4-(methoxymethyl)bicyclo[2.2.1]heptan-1-yl)ethyl)-1-methyl-4,5,6,7-tetrahydro-1H-imidazo[4,5-c]pyridine-2-carboxamido)-2′-methyl-[1,1′-biphenyl]-3-yl)carbamoyl)-1-methyl-1,4,6,7-tetrahydro-5H-imidazo[4,5-c]pyridin-5-yl)methyl)bicyclo[2.2.1]heptane-1-carboxylic acid]	38.3
1.94	COCC12CCC(CCN3CCc4c(nc(C(=O)Nc5cccc(-c6cccc(NC(=O)c7nc8c(n7C)CCN(CCC79CCC(C(=O)O)(CC7)C9)C8)c6Cl)c5C#N)n4C)C3)(CC1)C2 [Compound I-11, 4-(2-(2-((2-chloro-2′-cyano-3′-(5-(2-(4-(methoxymethyl)bicyclo[2.2.1]heptan-1-yl)ethyl)-1-methyl-4,5,6,7-tetrahydro-1H-imidazo[4,5-c]pyridine-2-carboxamido)-[1,1′-biphenyl]-3-yl)carbamoyl)-1-methyl-1,4,6,7-tetrahydro-5H-imidazo[4,5-c]pyridin-5-yl)ethyl)bicyclo[2.2.1]heptane-1-carboxylic acid]	26.3
4.62	Cn1c(C(=O)Nc2cccc(-c3cccc(NC(=O)c4nc5c(n4C)CCN(CC46CCC(C(=O)O)(CC4)C6)C5)c3Cl)c2Cl)nc2c1CCN(CCO)C2 [Example 180]	108
